{
  "source": "paper PMC4979471",
  "about": "(Cell Death Discovery, 2015)",
  "assay_in_all_cases": "Kinase selectivity, P33-radiolabeled assay",
  "type_in_all_cases": "biochemical",
  "settings_in_all_cases": "10 μM ATP",
  "key": {"CK1a1": {"target": "T1, CK1a1 (Homo sapiens, UniProt P48729)", "T1 construct": "purchased Reaction Biology Corp", "T1 sequence (P48729 whole entry)": "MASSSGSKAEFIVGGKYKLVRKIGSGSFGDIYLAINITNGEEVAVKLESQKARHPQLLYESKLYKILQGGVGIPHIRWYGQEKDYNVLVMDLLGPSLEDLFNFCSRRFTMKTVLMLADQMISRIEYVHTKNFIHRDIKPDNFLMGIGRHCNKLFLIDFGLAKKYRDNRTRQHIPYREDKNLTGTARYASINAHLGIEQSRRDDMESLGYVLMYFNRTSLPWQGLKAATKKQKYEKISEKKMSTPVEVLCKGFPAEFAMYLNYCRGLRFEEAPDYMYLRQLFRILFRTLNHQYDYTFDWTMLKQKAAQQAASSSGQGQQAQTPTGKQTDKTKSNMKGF", "method_in_brief": "(§1)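 Duplicate single-concentration testing used 10 μM compound. The ATP concentration was also 10 μM.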"}, "MEKK3": {"target": "T2, MEKK3 (Homo sapiens, UniProt Q99759)", "T2 construct": "purchased Reaction Biology Corp", "T2 sequence (Q99759 1-626)": "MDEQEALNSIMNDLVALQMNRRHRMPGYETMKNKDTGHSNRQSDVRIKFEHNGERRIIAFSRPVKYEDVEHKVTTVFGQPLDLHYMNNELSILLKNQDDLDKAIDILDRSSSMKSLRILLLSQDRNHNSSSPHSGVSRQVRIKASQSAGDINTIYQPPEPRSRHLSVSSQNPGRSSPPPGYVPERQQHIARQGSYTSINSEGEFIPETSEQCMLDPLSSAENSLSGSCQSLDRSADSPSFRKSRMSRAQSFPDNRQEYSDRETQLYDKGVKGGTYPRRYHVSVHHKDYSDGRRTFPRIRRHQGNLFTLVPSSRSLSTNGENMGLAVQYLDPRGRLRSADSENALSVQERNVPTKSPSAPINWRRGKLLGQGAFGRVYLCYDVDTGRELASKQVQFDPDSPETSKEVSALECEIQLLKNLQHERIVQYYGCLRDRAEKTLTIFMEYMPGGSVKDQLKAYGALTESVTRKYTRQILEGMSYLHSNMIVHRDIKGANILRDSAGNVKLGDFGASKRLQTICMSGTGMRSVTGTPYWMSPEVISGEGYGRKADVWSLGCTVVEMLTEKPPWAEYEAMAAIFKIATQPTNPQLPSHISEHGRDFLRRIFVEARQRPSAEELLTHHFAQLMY", "method_in_brief": "as §1"}, "TAOK2/TAO1": {"target": "T3, TAOK2/TAO1 (Homo sapiens, UniProt Q9UL54)", "T3 construct": "purchased Reaction Biology Corp", "T3 sequence (Q9UL54 1-1235)": "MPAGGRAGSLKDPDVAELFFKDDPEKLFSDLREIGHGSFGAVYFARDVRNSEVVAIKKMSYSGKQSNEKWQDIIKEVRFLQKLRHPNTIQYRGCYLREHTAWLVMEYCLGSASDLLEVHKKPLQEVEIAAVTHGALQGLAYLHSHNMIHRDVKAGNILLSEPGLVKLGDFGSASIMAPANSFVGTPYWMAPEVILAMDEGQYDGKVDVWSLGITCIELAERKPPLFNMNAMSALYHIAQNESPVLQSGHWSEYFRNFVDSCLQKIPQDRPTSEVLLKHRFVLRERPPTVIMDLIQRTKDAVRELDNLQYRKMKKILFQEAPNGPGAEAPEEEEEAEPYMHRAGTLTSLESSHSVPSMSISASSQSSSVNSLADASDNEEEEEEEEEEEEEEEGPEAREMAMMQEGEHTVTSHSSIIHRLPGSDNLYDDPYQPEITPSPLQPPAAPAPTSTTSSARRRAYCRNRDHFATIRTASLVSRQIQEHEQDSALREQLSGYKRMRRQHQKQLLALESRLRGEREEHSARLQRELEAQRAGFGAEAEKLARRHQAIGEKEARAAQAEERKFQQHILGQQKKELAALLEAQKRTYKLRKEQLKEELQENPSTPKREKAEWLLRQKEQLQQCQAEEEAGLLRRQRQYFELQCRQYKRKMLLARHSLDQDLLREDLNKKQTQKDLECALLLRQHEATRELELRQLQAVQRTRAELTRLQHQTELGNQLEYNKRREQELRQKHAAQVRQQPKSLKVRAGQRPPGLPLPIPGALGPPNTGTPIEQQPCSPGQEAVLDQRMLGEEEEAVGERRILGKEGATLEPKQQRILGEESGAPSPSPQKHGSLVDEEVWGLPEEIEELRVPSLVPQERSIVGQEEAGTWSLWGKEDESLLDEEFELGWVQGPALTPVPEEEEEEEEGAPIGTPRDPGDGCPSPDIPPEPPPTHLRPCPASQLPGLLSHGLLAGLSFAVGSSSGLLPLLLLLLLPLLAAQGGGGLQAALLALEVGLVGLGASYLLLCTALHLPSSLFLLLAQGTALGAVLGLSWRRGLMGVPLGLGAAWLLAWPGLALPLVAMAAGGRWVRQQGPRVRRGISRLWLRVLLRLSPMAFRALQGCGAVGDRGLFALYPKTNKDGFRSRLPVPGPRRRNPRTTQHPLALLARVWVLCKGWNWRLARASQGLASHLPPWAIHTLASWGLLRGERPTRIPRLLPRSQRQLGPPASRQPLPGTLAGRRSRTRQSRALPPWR", "method_in_brief": "as §1"}, "PKG1b": {"target": "T4, PKG1b (Homo sapiens, UniProt Q13976)", "T4 construct": "purchased Reaction Biology Corp", "T4 sequence (Q13976 1-686 isoform Q13976-2)": "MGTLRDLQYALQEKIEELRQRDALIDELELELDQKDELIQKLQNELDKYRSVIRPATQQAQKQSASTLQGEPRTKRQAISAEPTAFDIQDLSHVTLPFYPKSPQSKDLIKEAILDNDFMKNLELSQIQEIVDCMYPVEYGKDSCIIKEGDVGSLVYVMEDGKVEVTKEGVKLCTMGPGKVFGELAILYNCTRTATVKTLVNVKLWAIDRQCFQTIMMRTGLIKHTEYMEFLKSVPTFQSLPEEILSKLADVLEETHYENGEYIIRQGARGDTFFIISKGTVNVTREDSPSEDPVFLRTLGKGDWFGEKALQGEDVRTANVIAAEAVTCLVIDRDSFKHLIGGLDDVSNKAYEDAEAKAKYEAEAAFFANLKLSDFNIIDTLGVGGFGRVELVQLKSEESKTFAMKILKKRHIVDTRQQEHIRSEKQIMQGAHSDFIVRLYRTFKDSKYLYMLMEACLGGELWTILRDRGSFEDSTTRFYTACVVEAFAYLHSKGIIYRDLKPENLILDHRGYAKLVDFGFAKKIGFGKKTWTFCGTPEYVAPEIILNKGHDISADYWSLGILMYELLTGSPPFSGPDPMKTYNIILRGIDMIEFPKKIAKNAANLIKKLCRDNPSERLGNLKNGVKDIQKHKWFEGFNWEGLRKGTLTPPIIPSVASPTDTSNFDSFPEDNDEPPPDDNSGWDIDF", "method_in_brief": "as §1"}, "LRRK2": {"target": "T5, LRRK2 (Homo sapiens, UniProt Q5S007)", "T5 construct": "purchased Reaction Biology Corp", "T5 sequence (Q5S007 whole entry)": "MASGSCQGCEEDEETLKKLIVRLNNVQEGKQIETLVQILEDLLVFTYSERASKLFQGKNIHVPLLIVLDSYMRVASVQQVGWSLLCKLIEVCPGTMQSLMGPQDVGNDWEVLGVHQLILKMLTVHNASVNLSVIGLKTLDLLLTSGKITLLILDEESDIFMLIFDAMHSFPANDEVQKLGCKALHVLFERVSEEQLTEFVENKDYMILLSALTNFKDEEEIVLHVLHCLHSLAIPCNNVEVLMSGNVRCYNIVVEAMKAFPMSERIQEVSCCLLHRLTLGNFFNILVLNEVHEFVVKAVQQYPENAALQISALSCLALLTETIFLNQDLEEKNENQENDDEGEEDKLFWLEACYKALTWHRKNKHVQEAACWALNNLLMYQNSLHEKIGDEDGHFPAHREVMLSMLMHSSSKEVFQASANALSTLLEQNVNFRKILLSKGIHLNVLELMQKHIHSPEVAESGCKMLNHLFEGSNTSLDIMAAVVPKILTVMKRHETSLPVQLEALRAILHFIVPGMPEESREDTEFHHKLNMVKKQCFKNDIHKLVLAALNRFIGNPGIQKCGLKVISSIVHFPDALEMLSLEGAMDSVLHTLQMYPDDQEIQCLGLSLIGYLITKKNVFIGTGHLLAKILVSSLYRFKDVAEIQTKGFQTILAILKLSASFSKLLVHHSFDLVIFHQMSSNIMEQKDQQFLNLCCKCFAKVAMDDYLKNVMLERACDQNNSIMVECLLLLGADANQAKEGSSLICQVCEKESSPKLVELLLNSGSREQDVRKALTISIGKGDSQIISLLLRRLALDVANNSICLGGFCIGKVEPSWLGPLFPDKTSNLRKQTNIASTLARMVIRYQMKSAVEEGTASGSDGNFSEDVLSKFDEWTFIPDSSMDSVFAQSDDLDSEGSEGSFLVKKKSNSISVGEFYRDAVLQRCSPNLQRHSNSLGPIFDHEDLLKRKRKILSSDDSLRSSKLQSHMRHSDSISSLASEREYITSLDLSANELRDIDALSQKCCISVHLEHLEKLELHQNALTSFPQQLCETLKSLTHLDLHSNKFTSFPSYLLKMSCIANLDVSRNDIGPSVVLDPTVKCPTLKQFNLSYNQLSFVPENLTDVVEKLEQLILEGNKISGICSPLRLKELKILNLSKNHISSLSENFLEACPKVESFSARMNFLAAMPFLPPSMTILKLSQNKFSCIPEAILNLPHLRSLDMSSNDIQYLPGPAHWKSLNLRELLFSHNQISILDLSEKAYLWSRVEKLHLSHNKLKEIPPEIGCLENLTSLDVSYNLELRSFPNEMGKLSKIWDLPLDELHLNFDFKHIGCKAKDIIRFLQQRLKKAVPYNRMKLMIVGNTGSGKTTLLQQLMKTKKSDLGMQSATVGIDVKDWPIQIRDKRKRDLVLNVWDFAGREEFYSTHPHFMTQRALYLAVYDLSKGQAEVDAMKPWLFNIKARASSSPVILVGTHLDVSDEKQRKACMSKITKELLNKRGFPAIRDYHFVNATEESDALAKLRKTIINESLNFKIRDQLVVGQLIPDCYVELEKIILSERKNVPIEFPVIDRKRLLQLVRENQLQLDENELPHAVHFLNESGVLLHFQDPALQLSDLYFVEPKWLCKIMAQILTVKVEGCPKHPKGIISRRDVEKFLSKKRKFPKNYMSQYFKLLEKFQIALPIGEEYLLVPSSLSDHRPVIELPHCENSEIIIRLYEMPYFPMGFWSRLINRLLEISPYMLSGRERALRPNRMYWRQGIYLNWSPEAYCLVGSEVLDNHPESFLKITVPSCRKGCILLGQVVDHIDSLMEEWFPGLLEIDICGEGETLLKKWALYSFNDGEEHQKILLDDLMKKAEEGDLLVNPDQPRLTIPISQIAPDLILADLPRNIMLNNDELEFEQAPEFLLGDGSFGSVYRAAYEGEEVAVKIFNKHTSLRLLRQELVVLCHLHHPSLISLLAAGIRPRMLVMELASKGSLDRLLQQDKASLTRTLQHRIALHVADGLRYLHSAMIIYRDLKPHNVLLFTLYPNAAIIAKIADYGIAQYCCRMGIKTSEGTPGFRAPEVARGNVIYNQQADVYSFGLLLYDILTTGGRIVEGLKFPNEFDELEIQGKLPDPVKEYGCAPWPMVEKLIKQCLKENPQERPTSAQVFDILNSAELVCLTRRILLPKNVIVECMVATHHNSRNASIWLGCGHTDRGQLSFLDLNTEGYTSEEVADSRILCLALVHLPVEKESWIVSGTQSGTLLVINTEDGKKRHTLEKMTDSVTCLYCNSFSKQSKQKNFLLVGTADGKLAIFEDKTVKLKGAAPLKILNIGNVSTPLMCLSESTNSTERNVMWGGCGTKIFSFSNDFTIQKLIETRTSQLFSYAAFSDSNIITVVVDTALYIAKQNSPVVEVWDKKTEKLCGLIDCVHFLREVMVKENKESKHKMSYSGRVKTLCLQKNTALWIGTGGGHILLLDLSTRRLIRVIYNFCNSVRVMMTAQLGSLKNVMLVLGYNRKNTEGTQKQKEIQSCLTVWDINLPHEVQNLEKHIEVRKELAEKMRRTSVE", "method_in_brief": "as §1"}, "[1]": {"settings": "read-out: % Enzyme Activity (relative to DMSO controls) AVG"}, "[2]": {"settings": "read-out: % Enzyme Activity (relative to DMSO controls) Data 1"}, "[3]": {"settings": "read-out: % Enzyme Activity (relative to DMSO controls) Data 2"}},
  "note": "Like-named read-outs stand apart in the source and are kept apart here.",
  "data": [
    {"smiles": "CC(C)(C)C(=O)N1N=CC[C@H]1c1ccccc1", "note": "[GSK′963]", "values": [
      {"measurement": "remaining activity at 10 µM", "setting": "CK1a1; [1]", "result": 103, "unit": "%"},
      {"measurement": "remaining activity at 10 µM", "setting": "CK1a1; [2]", "result": 102, "unit": "%"},
      {"measurement": "remaining activity at 10 µM", "setting": "CK1a1; [3]", "result": 103, "unit": "%"},
      {"measurement": "remaining activity at 10 µM", "setting": "MEKK3; [1]", "result": 119, "unit": "%"},
      {"measurement": "remaining activity at 10 µM", "setting": "MEKK3; [2]", "result": 122, "unit": "%"},
      {"measurement": "remaining activity at 10 µM", "setting": "MEKK3; [3]", "result": 115, "unit": "%"},
      {"measurement": "remaining activity at 10 µM", "setting": "TAOK2/TAO1; [1]", "result": 95.6, "unit": "%"},
      {"measurement": "remaining activity at 10 µM", "setting": "TAOK2/TAO1; [2]", "result": 97, "unit": "%"},
      {"measurement": "remaining activity at 10 µM", "setting": "TAOK2/TAO1; [3]", "result": 94.2, "unit": "%"},
      {"measurement": "remaining activity at 10 µM", "setting": "PKG1b; [1]", "result": 80.5, "unit": "%"},
      {"measurement": "remaining activity at 10 µM", "setting": "PKG1b; [2]", "result": 78.3, "unit": "%"},
      {"measurement": "remaining activity at 10 µM", "setting": "PKG1b; [3]", "result": 82.6, "unit": "%"},
      {"measurement": "remaining activity at 10 µM", "setting": "LRRK2; [1]", "result": 99.5, "unit": "%"},
      {"measurement": "remaining activity at 10 µM", "setting": "LRRK2; [2]", "result": 102, "unit": "%"},
      {"measurement": "remaining activity at 10 µM", "setting": "LRRK2; [3]", "result": 97.1, "unit": "%"}
    ]}
  ]
}
